Patent US8604217B2, “Compound, a process for its preparation, a pharmaceutical composition, use of a compound, a method for modulating or regulating serine/threonine kinases and a serine/threonine kinases modulating agent” (Selvita S.A., priority 2009, dated 2013)

Key:
[1] = test system: human prostate adenocarcinoma PC3 cells; test: Growth inhibition test (MTS) on PC3 cells; type: cell-based; conditions: Homo sapiens, PC-3, 72 hours, read-out: PC-3 ED50
[2] = test system: human chronic myelocytic leukemia K562 cells; test: Growth inhibition test (MTS) on K562 cells; type: cell-based; conditions: Homo sapiens, K562, 72 hours, read-out: K562 ED50
Experimental: Ten thousand cells of human chronic myelocytic leukemia K562 were inoculated into each well of a 96-well microplate (manufactured by Corning Corp.) using Iscove's MDM medium (culture medium) containing 10% fetal calf serum (FCS). Next day, a dimethyl sulfoxide (DMSO) solution of each test compound prepared in a concentration of 10 mmol/L was further diluted with culture medium to the desired concentrations (0.1, 0.5, 1, 2.5, 5 and 10 micromol/L), and the diluted solution was added to each well. The individual wells were further cultured in 5% carbon dioxide at 37° C. for 72 hours. After completion of the culture, 10 μl MTS (3-(4,5-Dimethyl-2-thiazolyl)-5-(carboxymethoxyphenyl)-2-(4-sulfophenyl)-2H-tetrazolium, inner salt assay (CellTiter96® AQueous One Solution Cell Proliferation Assay, Promega) was added to each well, and culturing was performed in 5% carbon dioxide at 37° C. for 2 hours. Using a microplate spectrophotometer (Synergy 2 multi-mode microplate reader (BioTek)), the absorbance of each well was measured at 490 nm. The value for cells not incorporated with a test compound was designated as 100%. By comparing these values with the absorbance difference obtained at the well in which each test compound was added, the cell viability (% viability) after treatment with the test compound was calculated.

[3] = test system: human hepatoma HepG2 cells; test: Growth inhibition test (MTS) on HepG2 cells; type: cell-based; conditions: 72 hours, read-out: HepG2 ED50
Summary of the method: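 HepG2 cells in DMEM with 10% FCS were exposed for 72 h at 37 °C, 5% CO2, to 0.1, 0.5, 1, 2.5, 5 and 10 micromol/L compound. MTS was then added for 2 h and absorbance read at 490 nm. % viability was calculated relative to untreated cells set at 100%.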

[4] = target: PIM-1 (Homo sapiens (Human), UniProt P11309); test: Luminometric kinase assay for PIM1 kinase (Kinase-Glo); type: biochemical; conditions: 1 μM ATP, 25 min at RT
Chain of PIM-1 (P11309 whole entry): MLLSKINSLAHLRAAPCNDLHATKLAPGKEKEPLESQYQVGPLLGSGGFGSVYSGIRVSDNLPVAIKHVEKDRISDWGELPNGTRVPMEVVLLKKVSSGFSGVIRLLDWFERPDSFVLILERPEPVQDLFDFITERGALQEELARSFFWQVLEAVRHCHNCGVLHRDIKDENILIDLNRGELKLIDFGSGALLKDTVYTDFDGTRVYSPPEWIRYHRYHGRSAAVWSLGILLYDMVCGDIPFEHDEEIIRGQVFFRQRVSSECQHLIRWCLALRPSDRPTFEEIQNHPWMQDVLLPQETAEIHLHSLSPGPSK
Summary of the method: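 Kinase and substrate reacted in 8 mM MOPS/NaOH pH7.0, 0.2 mM EDTA, 2 mM MgCl2 with 1 μM ATP for 25 min at RT, compounds serially diluted from 1 μM. Remaining ATP read by Kinase-Glo luminescence; IC50 from variable-slope sigmoidal fit.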

[5] = test system: human myelomonocytic, biphenotypic leukemia MV4-11 cells; test: Growth inhibition test (MTS) on MV4-11 cells; type: cell-based; conditions: Homo sapiens, MV4-11, 72 hours, read-out: MV-4-11 ED50
Summary of the method: MV4-

Row | IC50 [1] | IC50 [2] | IC50 [3] | IC50 [4] | IC50 [5] | Structure (SMILES)
1 | 2100 nM | 3650 nM | 1310 nM | 6.55 nM | 550 nM | CCn1c(N2CCNCC2)nc2c(Br)c(Br)c(Br)c(Br)c21 [Compound 416, 4,5,6,7-tetrabromo-1-ethyl-2-(piperazin-1-yl)-1H-benzo[d]imidazole]
2 | 3830 nM | 3020 nM | 2400 nM | 25.6 nM | 2450 nM | Brc1c(Br)c(Br)c2[nH]c(N[C@H]3COC[C@@H]3N3CCCC3)nc2c1Br [Compound 337, 4,5,6,7-tetrabromo-N-((3R,4R)-tetrahydro-4-(pyrrolidin-1-yl)furan-3-yl)-1H-benzo[d]imidazol-2-amine]
3 | 5790 nM | 5640 nM |  | 6.68 nM | 680 nM | Brc1c(Br)c(Br)c2[nH]c(NC3CCNCC3)nc2c1Br [Compound 435, 4,5,6,7-tetrabromo-N-(piperidin-4-yl)-1H-benzo[d]imidazol-2-amine]
4 | 2450 nM | 3530 nM | 1400 nM | 41.1 nM | 1300 nM | CC(C)NC1CCCCC1Nc1nc2c(Br)c(Br)c(Br)c(Br)c2[nH]1 (stereo not shown) [Compound 369, N1-(4,5,6,7-tetrabromo-1H-benzo[d]imidazol-2-yl)-N2-isopropylcyclohexane-1,2-diamine]
5 | > 10000 nM | > 10000 nM | > 10000 nM | > 1000 nM | > 10000 nM | Brc1c(Br)c(Br)c2c(Br)n[nH]c2c1Br [Compound K64, 3,4,5,6,7-pentabromo-1H-indazole, reference compound]
6 | 4900 nM | 7470 nM | 2840 nM | 5.89 nM | 1030 nM | NCCCNc1nc2c(Br)c(Br)c(Br)c(Br)c2[nH]1 [Compound 11, N-(3-aminopropyl)-4,5,6,7-tetrabromo-1H-benzo[d]imidazol-2-amine]
7 | 2500 nM | 2940 nM | 1330 nM | 107 nM | 1300 nM | Brc1c(Br)c(Br)c2c(nc(N3CCNCC3)n2Cc2ccccc2)c1Br [Compound 374, 1-benzyl-4,5,6,7-tetrabromo-2-(piperazin-1-yl)-1H-benzo[d]imidazole]
8 | > 10000 nM | > 10000 nM | > 10000 nM | 31 nM | 3150 nM | CN(C)c1nc2c(Br)c(Br)c(Br)c(Br)c2[nH]1 [DMAT, 2-dimethylamino-4,5,6,7-tetrabromo-1H-benzimidazole, reference compound]
9 | 6200 nM | 6640 nM | 2650 nM | 5.82 nM | 1000 nM | CN1CCCC(Nc2nc3c(Br)c(Br)c(Br)c(Br)c3[nH]2)CC1 (stereo not shown) [Compound 358, 4,5,6,7-tetrabromo-N-(1-methylazepan-4-yl)-1H-benzo[d]imidazol-2-amine]
10 | 2570 nM | 4960 nM | 1850 nM | 9.36 nM | 560 nM | CCCn1c(N2CCNCC2)nc2c(Br)c(Br)c(Br)c(Br)c21 [Compound 417, 4,5,6,7-tetrabromo-2-(piperazin-1-yl)-1-propyl-1H-benzo[d]imidazole]
11 | 5650 nM | 5590 nM | 3800 nM | 15.1 nM | 4200 nM | NC1CCC(Nc2nc3c(Br)c(Br)c(Br)c(Br)c3[nH]2)CC1 (stereo not shown) [Compound 87, N1-(4,5,6,7-tetrabromo-1H-benzo[d]imidazol-2-yl)cyclohexane-1,4-diamine]
12 | 1600 nM | 1650 nM | 700 nM | 65 nM | 700 nM | CCn1c(N2CCN(CCN3CCNCC3)CC2)nc2c(Br)c(Br)c(Br)c(Br)c21 [Compound 441, 4,5,6,7-tetrabromo-1-ethyl-2-(4-(2-(piperazin-1-yl)ethyl)piperazin-1-yl)-1H-benzo[d]imidazole]
13 | > 10000 nM | > 10000 nM | > 10000 nM | > 1000 nM | > 10000 nM | CN(C)c1nc2c(Br)c(Br)c(Br)c(Br)c2n1CC(=O)O [Compound K66, 1-carboxymethyl-2-dimethylamino-4,5,6,7-tetrabromo-benzimidazole, reference compound]
14 | 4700 nM | 6510 nM | 2510 nM | 69.8 nM | 1580 nM | NCc1ccccc1CNc1nc2c(Br)c(Br)c(Br)c(Br)c2[nH]1 [Compound 349, N-(2-(aminomethyl)benzyl)-4,5,6,7-tetrabromo-1H-benzo[d]imidazol-2-amine]
15 | 2950 nM | 3050 nM | 1850 nM | 6.84 nM | 600 nM | CC(C)n1c(N2CCNCC2)nc2c(Br)c(Br)c(Br)c(Br)c21 [Compound 359, 4,5,6,7-tetrabromo-1-isopropyl-2-(piperazin-1-yl)-1H-benzo[d]imidazole]
16 | 6660 nM |  | 4200 nM | 39.1 nM | 6150 nM | CN(C)C1CCCN(c2nc3c(Br)c(Br)c(Br)c(Br)c3[nH]2)C1 (stereo not shown) [Compound 378, 1-(4,5,6,7-tetrabromo-1H-benzo[d]imidazol-2-yl)-N,N-dimethylpiperidin-3-amine]
17 | 4580 nM | 5210 nM | 2330 nM | 10.2 nM | 1970 nM | C[C@@H]1CN(c2nc3c(Br)c(Br)c(Br)c(Br)c3[nH]2)[C@@H](C)CN1 [Compound 364, 4,5,6,7-tetrabromo-2-((2S,5R)-2,5-dimethylpiperazin-1-yl)-1H-benzo[d]imidazole]
18 | 4760 nM | 5030 nM | 2760 nM | 21.7 nM | 3300 nM | Brc1c(Br)c(Br)c2[nH]c(N[C@H]3COC[C@@H]3N3CCCCC3)nc2c1Br [Compound 338, 4,5,6,7-tetrabromo-N-((3R,4R)-tetrahydro-4-(piperidin-1-yl)furan-3-yl)-1H-benzo[d]imidazol-2-amine]
19 | 5600 nM | 5040 nM | 1700 nM | 3.5 nM | 600 nM | Brc1c(Br)c(Br)c2[nH]c(NC3CCCNCC3)nc2c1Br (stereo not shown) [Compound 366, N-(azepan-4-yl)-4,5,6,7-tetrabromo-1H-benzo[d]imidazol-2-amine]
20 | 8400 nM | 6880 nM | 4870 nM | 18.8 nM | 2600 nM | NC1CCCC(Nc2nc3c(Br)c(Br)c(Br)c(Br)c3[nH]2)C1 (stereo not shown) [Compound 336, N1-(4,5,6,7-tetrabromo-1H-benzo[d]imidazol-2-yl)cyclohexane-1,3-diamine]
21 | 2770 nM | 2860 nM |  | 58 nM | 3310 nM | Brc1c(Br)c(Br)c2[nH]c(N3CCC(C4CCNCC4)CC3)nc2c1Br [Compound 386, 4,5,6,7-tetrabromo-2-(4-(piperidin-4-yl)piperidin-1-yl)-1H-benzo[d]imidazole]
22 | 3600 nM | 2900 nM | 1500 nM | 125 nM | 600 nM | CCn1c(N2CCN(CCCN3CCOCC3)CC2)nc2c(Br)c(Br)c(Br)c(Br)c21 [Compound 450]
23 | 1450 nM | 2730 nM | 1360 nM | 119 nM | 1550 nM | CCCCCNC1CCCCC1Nc1nc2c(Br)c(Br)c(Br)c(Br)c2[nH]1 (stereo not shown) [Compound 413, N1-(4,5,6,7-tetrabromo-1H-benzo[d]imidazol-2-yl)-N2-pentylcyclohexane-1,2-diamine]

Row | Structure (SMILES) | IC50 [1] | IC50 [2] | IC50 [3] | IC50 [4] | IC50 [5]
24 | Brc1c(Br)c(Br)c2[nH]c(N3CCNCC3)nc2c1Br [Compound 20, 4,5,6,7-tetrabromo-2-(piperazin-1-yl)-1H-benzo[d]imidazole] | 5140 nM | 6460 nM | 2860 nM | 16.9 nM | 480 nM
25 | Brc1c(Br)c(Br)c2[nH]nnc2c1Br [TBB, 4,5,6,7-tetrabromo-1Hbenzotriazole, reference compound] | > 10000 nM | > 10000 nM | > 10000 nM | > 1000 nM | > 10000 nM
26 | Brc1c(Br)c(Br)c2[nH]cnc2c1Br [TBI, 4,5,6,7-tetrabromo-1H-benzimidazole, reference compound] | > 10000 nM | > 10000 nM | > 10000 nM | 102 nM | > 10000 nM
